Data from patent US20130252917A1, “COMBINATION THERAPY OF 4-(3-(2H-1,2,3-TRIAZO-2-YL)PHENYLAMINO)-2-((1R,2S)-2-AMINOCYCLOHEXYLAMINO)PYRIMIDINE-5-CARBOXAMIDE AND FLUDARABINE” (priority 2010, published 2013).
Where two headings read alike, the source gives them in different places.

Tested on: primary CLL cells
Assay: tetrazolium-based cell viability assay (MTS) on primary CLL cells, Compound 1 with or without fludarabine
Parameters: species or system human
Settings: for IC50: Homo sapiens, CLL cell
Protocol: Fresh primary CLL cells from 42 CLL patients were purified using a Ficoll gradient. Purified cells were then added to wells (5×10^4 per well) containing 10% serum serum containing media and four serial dilutions of Compound 1 (ranging from 10 nM to 10 μM) with or without different concentrations of fludarabine (also ranging from 10 nM to 10 μM). […] The viability data were normalized to untreated controls and were used to calculate IC50 values. […] Comput. Biomed. Res. 199, 32(2): 145-160).

NC(=O)c1cnc(N[C@@H]2CCCC[C@@H]2N)nc1Nc1cccc(-n2nccn2)c1 [Compound 1, 4-(3-(2H-1,2,3-triazol-2-yl)phenylamino)-2-((1R,2S)-2-aminocyclohexylamino)pyrimidine-5-carboxamide]
IC50 (read-out: median IC50 (cell viability)): 394 nM | IC50 (three of seven samples with the 17p deletion that had significant activity, read-out: IC50 (cell viability)): 37.5 nM | cell viability (samples from relapsed patients and with poor risk features (ZAP70 and/or CD38 expression, 11q deletion, unmutated IgVh)): significant decreases in cell viability
